Laboratory results as given in patent US20210300924A1, “5-[6-[[3-(4,5,6,7-TETRAHYDROPYRAZOLO[4,3-C]PYRIDIN-1-YL)AZETIDIN-1-YL]METHYL]MORPHOLIN-4-YL]QUINOLINE-8-CARBONITRILE DERIVATIVES AND SIMILAR COMPOUNDS AS TLR7-9 ANTAGONISTS FOR TREATING SYSTEMIC LUPUS ERYTHEMATOSUS” (Hoffmann-La Roche Inc., priority 2018, published 2021).

Assays:
CYP2D6 = target: T1, CYP2D6 (Homo sapiens, UniProt P10635); assay: CYP inhibition assay in human liver microsome; type: in vitro ADME; conditions: human liver microsomes, probe dextromethorphan, dextromethorphan substrate, percentage inhibition <0: not or weak inhibitor, read-out: CYP 2D6 inhibition % @ 10 μM
T1 construct: tissue BD-Gentest 452117; host or cells: human liver microsomes
T1 sequence (P10635 whole entry): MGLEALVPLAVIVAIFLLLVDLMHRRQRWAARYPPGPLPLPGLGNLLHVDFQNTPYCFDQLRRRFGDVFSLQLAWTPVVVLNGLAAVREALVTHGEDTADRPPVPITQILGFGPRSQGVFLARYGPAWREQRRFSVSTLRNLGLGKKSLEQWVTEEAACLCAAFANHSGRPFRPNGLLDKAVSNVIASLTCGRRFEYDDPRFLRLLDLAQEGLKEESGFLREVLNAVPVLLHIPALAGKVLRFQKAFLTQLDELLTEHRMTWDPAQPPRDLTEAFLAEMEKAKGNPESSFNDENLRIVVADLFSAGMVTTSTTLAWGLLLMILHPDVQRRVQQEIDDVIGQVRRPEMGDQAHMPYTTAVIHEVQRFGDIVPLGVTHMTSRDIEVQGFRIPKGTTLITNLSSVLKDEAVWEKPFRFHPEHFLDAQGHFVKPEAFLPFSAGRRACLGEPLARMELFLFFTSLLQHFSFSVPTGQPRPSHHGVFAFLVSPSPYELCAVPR
Description: This is a high throughput screening assay used for assessment of reversible inhibition of CYP2D6 activity of test compounds in human liver microsome (HLM) in early discovery stage.
10 mM DMSO stock solutions of test compounds were diluted in DMSO to generate 2 mM intermediate stock solution. 250 nL of intermediate stock solution were transferred in duplicate into 3 separate 384 well microtitre plates (assay-ready plates). A mixture of HLM and each substrate was made up. 45 μL of HLM substrate mix was then transferred to each well of an assay ready plate and mixed. The negative (solvent) and positive control (standard inhibitor for CYP 2D6) were included in each assay ready plate. The assay ready plate was warmed to 37° C. in an incubator over 10 minutes. 5 μL pre-warmed NADPH regenerating system was added to each incubation well to start the reaction. Final incubation volume was 50 μL. The assay plate then was placed back in the 37° C. incubator. After 10 minutes incubation, incubates were quenched by addition of 50 μL 100% acetonitrile containing internal standards (20 ng/mL D3-Dextrorphan). The supernatants were collected for RapidFire/MS/MS analysis.
RapidFire online solid phase extraction/sample injection system (Agilent) coupled with API4000 triple quadrupole mass spectrometer (AB Sciex) were used for sample analysis. The mobile phase composed of acetonitrile and water supplemented with 0.1% formic acid. A C4 solid phase extraction cartridge is used for sample separation. MS detection is achieved in positive ion MRM mode.
Peak areas for substrate, metabolite and internal standard are determined using the RapidFire integrator software (version 3.6.12009.12296). Peak area ratios (PAR) of metabolite and internal standard (stable-labelled metabolite) are then calculated. The measurement window for each experiment is then defined:
PAR (0% activity)=average PAR for all incubations containing concentrated inhibitor;
Par (100% activity)=average PAR for all incubations containing no inhibitor (DMSO controls);
% Activity (test inhibitor)=
[PAR(test inhibitor)−PAR(0% activity)]/[PAR(100% activity)−PAR(0% activity)]; % Inhibition (test inhibitor)=100−% Activity (test inhibitor).

TLR9 = target: T2, TLR9 (Homo sapiens, UniProt Q9NR96); assay: HEK293-Blue-hTLR-9 cells assay; type: cell-based; parameters: host or cells: HEK293 (HEK-Blue hTLR9); conditions: HEK293-Blue-hTLR9 cells, ODN2006 stimulation, 20 hrs, SEAP reporter; read-out: HEK/hTLR9 IC50
T2 sequence (Q9NR96 26-1032): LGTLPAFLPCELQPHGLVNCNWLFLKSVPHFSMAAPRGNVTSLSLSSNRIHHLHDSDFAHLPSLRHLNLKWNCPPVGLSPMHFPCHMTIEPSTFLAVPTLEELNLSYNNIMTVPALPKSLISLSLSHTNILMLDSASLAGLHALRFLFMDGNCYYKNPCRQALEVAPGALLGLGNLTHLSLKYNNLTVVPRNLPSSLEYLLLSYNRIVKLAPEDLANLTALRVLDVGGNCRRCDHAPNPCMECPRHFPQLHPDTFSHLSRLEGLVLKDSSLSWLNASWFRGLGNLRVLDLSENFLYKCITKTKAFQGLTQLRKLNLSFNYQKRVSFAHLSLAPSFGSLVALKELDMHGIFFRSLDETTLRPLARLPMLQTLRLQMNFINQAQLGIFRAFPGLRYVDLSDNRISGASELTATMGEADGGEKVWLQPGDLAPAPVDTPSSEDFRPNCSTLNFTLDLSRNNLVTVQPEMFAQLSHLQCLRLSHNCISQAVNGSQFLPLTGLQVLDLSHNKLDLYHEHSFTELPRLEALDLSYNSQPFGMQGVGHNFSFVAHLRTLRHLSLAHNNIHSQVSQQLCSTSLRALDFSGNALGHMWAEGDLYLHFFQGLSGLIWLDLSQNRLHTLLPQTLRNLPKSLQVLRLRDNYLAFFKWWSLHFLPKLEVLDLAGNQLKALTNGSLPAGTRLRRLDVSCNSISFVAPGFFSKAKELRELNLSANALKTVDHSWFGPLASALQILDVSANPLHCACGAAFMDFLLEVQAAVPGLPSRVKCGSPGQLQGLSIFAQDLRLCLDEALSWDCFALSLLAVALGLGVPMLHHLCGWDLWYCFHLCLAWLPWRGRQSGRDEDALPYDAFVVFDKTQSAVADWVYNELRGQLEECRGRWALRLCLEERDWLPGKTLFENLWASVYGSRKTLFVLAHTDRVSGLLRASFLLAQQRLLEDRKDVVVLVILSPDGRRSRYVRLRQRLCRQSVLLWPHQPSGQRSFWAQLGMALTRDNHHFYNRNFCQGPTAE
From the text: HEK293-Blue-hTLR-9 Cells Assay:
A stable HEK293-Blue-hTLR-9 cell line was purchased from InvivoGen (Cat. #: hkb-htlr9, San Diego, Calif., USA). These cells were originally designed for studying the stimulation of human TLR9 by monitoring the activation of NF-κB. A SEAP (secreted embryonic alkaline phosphatase) reporter gene was placed under the control of the IFN-β minimal promoter fused to five NF-κB and AP-1-binding sites. The SEAP was induced by activating NF-κB and AP-1 via stimulating HEK-Blue hTLR9 cells with TLR9 ligands. Therefore the reporter expression was declined by TLR9 antagonist under the stimulation of a ligand, such as ODN2006 (Cat. #: tlr1-2006-1, Invivogen, San Diego, Calif., USA), for incubation of 20 hrs. The cell culture supernatant SEAP reporter activity was determined using QUANTI-Blue™ kit (Cat. #: rep-01, Invivogen, San Diego, Calif., USA) at a wavelength of 640 nm, a detection medium that turns purple or blue in the presence of alkaline phosphatase.
HEK293-Blue-hTLR9 cells were incubated at a density of 250,000-450,000 cells/mL in a volume of 170 μL in a 96-well plate in Dulbecco's Modified Eagle's medium (DMEM) containing 4.5 g/L glucose, 50 U/mL penicillin, […], 2 mM L-glutamine, 10% (v/v) heat-inactivated fetal bovine serum with addition of 20 μL test compound in a serial dilution in the presence of final DMSO at 1% and 10 μL of 20 uM ODN2006 in above DMEM, perform incubation under 37° C. in a CO2 incubator for 20 hrs. Then 20 μL of the supernatant from each well was incubated with 180 μL Quanti-blue substrate solution at 37° C. for 2 h and the absorbance was read at 620-655 nm using a spectrophotometer. The signaling pathway that TLR9 activation leads to downstream NF-κB activation has been widely accepted, and therefore similar reporter assay was modified for evaluating TLR9 antagonist.

SMILES	inhibition at 10 min, 10 µM (CYP2D6) [%]	IC50 (TLR9) [nM]
C[C@@H]1CN(c2ccc(C#N)c3ncccc23)C[C@H](CN2CC(n3cc4c(n3)CNCC4)C2)O1 [Example 4, 5-[(2R,6S)-2-methyl-6-[[3-(4,5,6,7-tetrahydropyrazolo[3,4-c]pyridin-2-yl)azetidin-1-yl]methyl]morpholin-4-yl]quinoline-8-carbonitrile]	7.5	< 32
Cc1nn(C2CN(C[C@H]3CN(c4ccc(C#N)c5ncccc45)C[C@@H](C)O3)C2)c2c1CCNC2 [Example 42, 5-[(2R,6S)-2-methyl-6-[[3-(3-methyl-4,5,6,7-tetrahydropyrazolo[3,4-c]pyridin-1-yl)azetidin-1-yl]methyl]morpholin-4-yl]quinoline-8-carbonitrile]	17.5	134
CCN1CCc2cn(C3CN(C[C@H]4CN(c5ccc(C#N)c6ncccc56)C[C@@H](C)O4)C3)nc2C1 [Example 7, 5-[(2S,6R)-2-[[3-(6-ethyl-5,7-dihydro-4H-pyrazolo[3,4-c]pyridin-2-yl)azetidin-1-yl]methyl]-6-methyl-morpholin-4-yl]quinoline-8-carbonitrile]	-19.5	116
C[C@@H]1CN(c2ccc(C#N)c3ncccc23)C[C@H](CN2CC(n3cc4c(n3)CNC4)C2)O1 [Example 11, 5-[(2S,6R)-2-[[3-(5,6-dihydro-4H-pyrrolo[3,4-c]pyrazol-2-yl)azetidin-1-yl]methyl]-6-methyl-morpholin-4-yl]quinoline-8-carbonitrile]	-6	49
C[C@@H]1Cc2cnn(C3CN(C[C@H]4CN(c5ccc(C#N)c6ncccc56)C[C@@H](C)O4)C3)c2CN1 (single isomer, unassigned) [Example 28]	0.5	71
CCN1CCc2cnn(C3CN(C[C@H]4CN(c5ccc(C#N)c6ncccc56)C[C@@H](C)O4)C3)c2C1 [Example 6, 5-[(2S,6R)-2-[[3-(6-ethyl-5,7-dihydro-4H-pyrazolo[3,4-c]pyridin-1-yl)azetidin-1-yl]methyl]-6-methyl-morpholin-4-yl]quinoline-8-carbonitrile]	8.5	153
